Measured values published in US20040152674A1, “Pharmaceutically active compounds and methods of use thereof” (Trustees of Tufts College, priority 1998, published 2004).
Values after ≈ are worked out from the molar mass of the structure shown.

Tests used:
S. aureus MRSA5 = assay: MIC by broth dilution method (Table 4); assay type: cell-based; parameters: unit not given here; conditions: S. aureus MRSA5 Tc^r; 18 hours
Method: (§1) The minimum inhibitory concentration, the lowest concentration of drug that inhibits bacterial growth at 18 hours at their appropriate temperature, is determined by the broth dilution method using L-broth or Muller-Hinton broth. The Muller-Hinton broth was cation-adjusted accordingly and all bacteriological methods were performed as was described by Waitz, J. A., National Commision for Clinical Laboratory Standards Document M7-A2, vol.10, no. 8, pp.13-20, 2nd edition, Villanova, Pa. (1990). The organisms tested represent gram-positive and gram-negative bacterial species that are susceptible to tetracyclines or are resistant to tetracyclines due to the ability to efflux tetracyclines or which confer resistance by ribosomal protection mechanisms. The clinical strains used are either susceptible to tetracyclines or are resistant to them by either drug efflux or ribosomal protection.

E. coli D31m4 [1] = assay: MIC by broth dilution method (Table 4); assay type: cell-based; parameters: unit not given here; conditions: E. coli D31m4* Tc^r, lipopolysaccharide-deficient mutant; 18 hours
Method: as §1

S. aureus RN4250 = assay: MIC by broth dilution method (Table 4); assay type: cell-based; parameters: unit not given here; conditions: S. aureus RN4250 Tc^r; 18 hours
Method: as §1

E. faecalis ATCC9790 [2] = assay: MIC by broth dilution method (Table 4); assay type: cell-based; parameters: unit not given here; conditions: E. faecalis Tc^r ATCC9790; 18 hours
Method: as §1

S. aureus ATCC12715 = assay: MIC by broth dilution method (Table 4); assay type: cell-based; parameters: unit not given here; conditions: S. aureus Tc^r ATCC12715; 18 hours
Method: as §1

E. faecalis pAM211 = assay: MIC by broth dilution method (Table 4); assay type: cell-based; parameters: unit not given here; conditions: E. faecalis pAM211 Tc^r; 18 hours
Method: as §1

S. aureus RN450 [3] = assay: MIC by broth dilution method (Table 4); assay type: cell-based; parameters: unit not given here; conditions: S. aureus RN450 Tc^s; 18 hours
Method: as §1

E. coli D31m4(pHCM1) = assay: MIC by broth dilution method (Table 4); assay type: cell-based; parameters: unit not given here; conditions: E. coli D31m4(pHCM1) Tcr; 18 hours
Method: as §1

E. faecalis pMV158 = assay: MIC by broth dilution method (Table 4); assay type: cell-based; parameters: unit not given here; conditions: E. faecalis pMV158 Tc^r; 18 hours
Method: as §1

E. faecalid pMV158 (L) = assay: MIC in L broth tubes (Example 10); assay type: cell-based, E. faecalis; conditions: Enterococcus faecalis, read-out: Minimum Inhibitory Concentration
Method: (§2) The inhibitory effects of compounds of the invention were examined relative to doxycycline using tetracycline-sensitive and tetracycline-resistant strains of E. coli, S. aureus, and E. faecalis as specified in the Tables below. The general protocol for performing these experiments was as follows: cultures were grown up fresh in L broth in the morning from an overnight culture. After 4-6 hours of growth, each bacterial culture was diluted to an A530 of 0.2-0.5 depending on the strain (E. coli, 0.5; S. aureus, 0.4; E. faecalis, 0.2). Individual tubes, containing 1 ml of L broth and different concentrations of the tested compound, were inoculated with the different bacterial cultures and then incubated at 37° C. After 17-18 hours of incubation, the concentration of the tested compound at which no observed cloudiness was seen was called the minimal inhibitory concentration (MIC). The results obtained are set forth in Tables 2 and 3 below, with the MIC values expressed in μg/ml and set forth in columns beneath the tested compound.

MRSA 3 = assay: MIC in L broth tubes (Example 10); assay type: cell-based, S. aureus; conditions: Staphylococcus aureus, read-out: Minimum Inhibitory Concentration
Method: as §2

MRSA 1 = assay: MIC in L broth tubes (Example 10); assay type: cell-based, S. aureus
Method: as §2

VRE 15 = assay: MIC in L broth tubes (Example 10); assay type: cell-based; conditions: Enterococcus, read-out: Minimum Inhibitory Concentration
Method: as §2

E. coli D31m4 [4] = assay: MIC in L broth tubes (Example 10); assay type: cell-based; conditions: Escherichia coli, D31M4, read-out: Minimum Inhibitory Concentration
Method: as §2

VRE 19 = assay: MIC in L broth tubes (Example 10); assay type: cell-based; conditions: Enterococcus; VRE 19, tetracycline sensitive; read-out: Minimum Inhibitory Concentration
Method: as §2

E. faecalis ATCC9790 [5] = assay: MIC in L broth tubes (Example 10); assay type: cell-based; conditions: Enterococcus faecalis; E. faecalis ATCC9790, tetracycline sensitive; 17-18 hours, 37° C.; read-out: Minimum Inhibitory Concentration
Method: as §2

S. aureus RN4250 (K) = assay: MIC in L broth tubes (Example 10); assay type: cell-based; conditions: Staphylococcus aureus, read-out: Minimum Inhibitory Concentration
Method: as §2

E. faecalis pAM211 (L) = assay: MIC in L broth tubes (Example 10); assay type: cell-based; conditions: Enterococcus faecalis, read-out: Minimum Inhibitory Concentration
Method: as §2

VRE 11 = assay: MIC in L broth tubes (Example 10); assay type: cell-based; conditions: Enterococcus, read-out: Minimum Inhibitory Concentration
Method: as §2

VRE 17 = assay: MIC in L broth tubes (Example 10); assay type: cell-based; conditions: Enterococcus; VRE 17, tetracycline sensitive; read-out: Minimum Inhibitory Concentration
Method: as §2

S. aureus RN450 [6] = assay: MIC in L broth tubes (Example 10); assay type: cell-based; conditions: Staphylococcus aureus; S. aureus RN450, tetracycline sensitive; 17-18 hours, 37° C.; read-out: Minimum Inhibitory Concentration
Method: as §2

S. aureus 12715 (K) = assay: MIC in L broth tubes (Example 10); assay type: cell-based; conditions: Staphylococcus aureus, tetracycline resistant, 17-18 hours, 37° C., read-out: Minimum Inhibitory Concentration
Method: as §2

E. coli D31m4(pHCM1) (B) = assay: MIC in L broth tubes (Example 10); assay type: cell-based; conditions: Escherichia coli, read-out: Minimum Inhibitory Concentration
Method: as §2

| SMILES | Antibacterial activity (minimum inhibitory concentration) (S. aureus MRSA5) | Antibacterial activity (minimum inhibitory concentration) (E. coli D31m4 [1]) | Antibacterial activity (minimum inhibitory concentration) (S. aureus RN4250) | Antibacterial activity (minimum inhibitory concentration) (E. faecalis ATCC9790 [2]) | Antibacterial activity (minimum inhibitory concentration) (S. aureus ATCC12715) | Antibacterial activity (minimum inhibitory concentration) (E. faecalis pAM211) | Antibacterial activity (minimum inhibitory concentration) (S. aureus RN450 [3]) | Antibacterial activity (minimum inhibitory concentration) (E. coli D31m4(pHCM1)) | Antibacterial activity (minimum inhibitory concentration) (E. faecalis pMV158) | also measured |
| --- | --- | --- | --- | --- | --- | --- | --- | --- | --- | --- |
| CC1c2ccc(C(C)(C)CCCN3CCCC3)c(O)c2C(=O)C2=C(O)[C@]3(O)C(=O)C(C(N)=O)=C(O)[C@@H](N(C)C)C3C(O)C21 (stereo partly drawn) [K, [4S-(4alpha,12a-alpha)]-9-[4′-(1′-pyrrolidinyl-4′-methyl)pentyl]-4-(dimethylamino)-1,4,4a,5,5a,6,11,12a-octahydro-3,5,10,12,12a-pentahydroxy-6-methyl-1,11-dioxo-2-naphthacenecarboxamide] | 6.25 | 50 | 50 | 25 | 50 | 25 | 25 | 50 | 25 |  |
| C[C@H]1c2cccc(O)c2C(=O)C2=C(O)[C@]3(O)C(=O)C(C(N)=O)=C(O)[C@@H](N(C)C)C3[C@@H](O)C21 (stereo partly drawn) [Doxycycline, [4S-(4alpha,12aalpha)]-4-(dimethylamino)-1,4,4a,5,5a,6,11,12a-octahydro-3,5,10,12,12a-pentahydroxy-6-methyl-1,11-dioxo-2-naphthacenecarboxamide, reference compound] | 6.25 | 0.78 | 25 | 0.39 | 50 | 12.5 | 0.195 | 12.5 | 6.25 | MIC (E. faecalid pMV158 (L)): 12.5 µg/mL (≈ 28.1 µM); MIC (MRSA 3): 6.25 µg/mL (≈ 14.1 µM); Minimum Inhibitory Concentration (MRSA 1; MRSA 1, listed under Tetracycline Sensitive Bacteria): 6.25 µg/mL; MIC (MRSA 1; Staphylococcus aureus, MRSA, read-out: Minimum Inhibitory Concentration): 6.25 µg/mL (≈ 14.1 µM); MIC (VRE 15): 12.5 µg/mL (≈ 28.1 µM); MIC (E. coli D31m4 [4]): < 0.78 µg/mL; MIC (VRE 19): ≤ 1.56 µg/mL; MIC (E. faecalis ATCC9790 [5]): < 0.78 µg/mL; MIC (S. aureus RN4250 (K)): 12.5 µg/mL (≈ 28.1 µM); MIC (E. faecalis pAM211 (L)): 12.5 µg/mL (≈ 28.1 µM); MIC (VRE 11): 12.5 µg/mL (≈ 28.1 µM); MIC (VRE 17): ≤ 1.56 µg/mL; MIC (S. aureus RN450 [6]): < 0.78 µg/mL; MIC (S. aureus 12715 (K)): 25 µg/mL (≈ 56.3 µM); MIC (E. coli D31m4(pHCM1) (B)): 12.5 µg/mL (≈ 28.1 µM) |
| CC(=O)OC1C2C(=C(O)C3(O)C(=O)C(C(N)=O)=C(O)C(N(C)C)C13)C(=O)c1c(ccc(C(C)(C)C)c1O)C2C (stereo not drawn) [C, [4S-(4alpha,12aalpha)]-9-(tert-butyl)-4-(dimethylamino)-5-acetylcarbonyloxy-1,4,4a,5,5a,6,11,12a-octahydro-3,10,12,12a-tetrahydroxy-6-methyl-1,11-dioxo-2-naphthacenecarboxamide] | 1.56 | 3.12 | 0.39 | 0.78 | 0.78 | 0.78 | 0.39 | 3.12 | 0.39 |  |
| CC1c2ccc(C(C)(C)CCCN(C)C)c(O)c2C(=O)C2=C(O)[C@]3(O)C(=O)C(C(N)=O)=C(O)[C@@H](N(C)C)C3C(O)C21 (stereo partly drawn) [J, [4S-(4alpha,12aalpha)]-9-[4′-(1′-dimethylamino-4′-methyl)pentyl]-4-(dimethylamino)-1,4,4a,5,5a,6,11,12a-octahydro-3,5,10,12,12a-pentahydroxy-6-methyl-1,11-dioxo-2-naphthacenecarboxamide] | 50 | 50 | 50 | 50 | 50 | 50 | 50 | 50 | 50 |  |
| CCCC(C)(C)c1ccc2c(c1O)C(=O)C1=C(O)[C@]3(O)C(=O)C(C(N)=O)=C(O)[C@@H](N(C)C)C3C(O)C1C2C (stereo partly drawn) [H, [4S-(4alpha,12aalpha)]-9-[2′-(2′-methyl)pentyl]-4-(dimethylamino)-1,4,4a,5,5a,6,11,12a-octahydro-3,5,10,12,12a-pentahydroxy-6-methyl-1,11-dioxo-2-naphthacenecarboxamide] | 0.39 | 50 | 0.39 | 0.78 | 0.78 | 0.78 | 0.08 | 1.56 | 0.78 |  |
| CC1c2ccc(C(C)(C)CCCBr)c(O)c2C(=O)C2=C(O)[C@]3(O)C(=O)C(C(N)=O)=C(O)[C@@H](N(C)C)C3C(O)C21 (stereo partly drawn) [I, [4S-(4alpha,12aalpha)]-9-[4′-(1′-bromo-4′-methyl)pentyl]-4-(dimethylamino)-1,4,4a,5,5a,6,11,12a-octahydro-3,5,10,12,12a-pentahydroxy-6-methyl-1,11-dioxo-2-naphthacenecarboxamide] | 0.39 | 1.56 | 0.08 | 0.39 | 0.78 | 0.78 | 0.39 | 1.56 | 0.08 |  |
